Experimental findings from ChEMBL document CHEMBL3351974, “Development of constrained tamoxifen mimics and their antiproliferative properties against breast cancer cells” (Bioorg Med Chem Lett, 2015) are described below.

Assay [1] in a line: Antiproliferative activity against human MEpiC cells after 48 hrs by MTT assay. It counts as cell-based. (Tetrazolium assays rely on reduction of a dye to a coloured formazan, in cell work by metabolically active cells.)
The test system of the next assay is MCF7. In words: Antiproliferative activity against human MCF7 cells after 48 hrs by MTT assay. Particulars: MCF7, 48 h. In kind it is functional, cell-based.
Another assay has as its system MDA-MB-231. As to the kind of experiment: Antiproliferative activity against human MDA-MB-231 cells after 48 hrs by MTT assay. In kind it is functional, cell-based. Particulars: MDA-MB-231, 48 h.

Counter-ions that a name gives are not always drawn.

As a reminder, the IC50 is the concentration at which inhibition is half-maximal. `COc1ccc(OC(=O)C#Cc2ccccc2)cc1`: the IC50 in assay [1] was found to be 19.1 µM; with MCF7, 52.6 µM; in the assay on MDA-MB-231, 6.66 µM.

Consider `O=C1C=CC2(C=C1)OC(=O)C(I)=C2c1ccccc1`, for which the results for the half-inhibitory concentration (IC50) (in assay [1]; in the assay on MCF7; in the assay with MDA-MB-231) were 6.33 µM, 41.5 µM and 7.51 µM, respectively.

Turning to `O=C1C=CC2(C=C1)OC(=O)C(c1cc3ccccc3s1)=C2c1ccccc1`, the figures for the IC50 (in assay [1]; in the assay with MCF7; with MDA-MB-231) were 10.8 µM, 5.9 µM and 32.9 µM, respectively.

Take `O=C1C=CC2(C=C1)OC(=O)C(c1ccc(F)cc1)=C2c1ccccc1`: the 50% inhibitory concentration (IC50) in assay [1] was determined as 11.1 µM; with MCF7 it was 6.32 µM; in the assay on MDA-MB-231, 38.6 µM.

Take `O=C1C=CC2(C=C1)OC(=O)C(c1cc3ccccc3o1)=C2c1ccccc1`: the IC50 in assay [1] was 66.5 µM; in the assay with MCF7 it was 5.8 µM; with MDA-MB-231, 21.2 µM.

With `O=C1C=CC2(C=C1)OC(=O)C(c1ccc(O)cc1)=C2c1ccccc1`, the IC50 in assay [1] amounted to 16.8 µM; in the assay with MCF7, 6 µM; in the assay on MDA-MB-231, 61 µM.

On to `O=C1C=CC2(C=C1)OC(=O)C(c1ccc([N+](=O)[O-])cc1)=C2c1ccccc1`, for which the values for the IC50 (in assay [1]; with MCF7; in the assay on MDA-MB-231) were 66.5 µM, 5.99 µM and 19 µM, respectively.

On to `COc1ccc(C2=C(c3ccccc3)C3(C=CC(=O)C=C3)OC2=O)cc1`, for which the IC50 in assay [1] was found to be 11.7 µM; in the assay on MCF7 it was 5.86 µM; in the assay on MDA-MB-231, 64 µM.

Turning to `O=C1C=CC2(C=C1)OC(=O)C(c1ccc(CO)cc1)=C2c1ccccc1`, the IC50 is 3.86 µM in assay [1], 5.76 µM in the assay with MCF7 and 8.85 µM in the assay on MDA-MB-231.

For `COc1cc(C2=C(c3ccccc3)C3(C=CC(=O)C=C3)OC2=O)cc(OC)c1OC`, the IC50 in assay [1] worked out at 6.61 µM; with MCF7, 5.79 µM; in the assay with MDA-MB-231, 9.73 µM.

For `COc1ccc(F)cc1C1=C(c2ccccc2)C2(C=CC(=O)C=C2)OC1=O`, the figures for the IC50 (in assay [1]; in the assay with MCF7; in the assay on MDA-MB-231) were 13.5 µM, 5.73 µM and 10 µM, respectively.

`COc1c(Br)cc(C)cc1C1=C(c2ccccc2)C2(C=CC(=O)C=C2)OC1=O`: the IC50 in assay [1] worked out at 14.7 µM; with MCF7, 5.85 µM; in the assay on MDA-MB-231, 9.45 µM.

Regarding `O=C1C=CC2(C=C1)OC(=O)C(c1ccc3c(c1)OCO3)=C2c1ccccc1`, the figures for the IC50 (in assay [1]; with MCF7; with MDA-MB-231) were 34.2 µM, 5.81 µM and 9.12 µM, respectively.

On to `N#Cc1ccc(C2=C(c3ccccc3)C3(C=CC(=O)C=C3)OC2=O)cc1`, for which the IC50 in assay [1] turned out to be 8.89 µM; in the assay with MCF7, 19 µM; in the assay with MDA-MB-231, 8.74 µM.

For the compound `O=C1C=CC2(C=C1)OC(=O)C(c1ccc(C(=O)O)cc1)=C2c1ccccc1`, the IC50 is 10.4 µM in assay [1], 5.95 µM with MCF7 and 15.2 µM in the assay with MDA-MB-231.

Take `O=Cc1ccc(C2=C(c3ccccc3)C3(C=CC(=O)C=C3)OC2=O)s1`: the IC50 in assay [1] was determined as 7.08 µM; in the assay with MCF7 it was 6.23 µM; in the assay with MDA-MB-231, 19.8 µM.

For `O=C1C=CC2(C=C1)OC(=O)C=C2c1ccccc1`, the figures for the IC50 (in assay [1]; in the assay with MCF7; in the assay with MDA-MB-231) were 7.67 µM, 6.46 µM and 15.9 µM, respectively.

In the case of `COc1cccc2c1C(=O)c1c(O)c3c(c(O)c1C2=O)C[C@@](O)(C(=O)CO)C[C@@H]3O[C@H]1C[C@H](N)[C@H](O)[C@H](C)O1` [DOXORUBICIN HYDROCHLORIDE], the IC50 in the assay on MDA-MB-231 worked out at 4.06 µM.
